Assay results as given in patent publication US5169855A, “Piperidine ether derivatives as psychotropic drugs or plant fungicides” (priority 1990, dated 1992).

Key:
[1] = tested on: isolation-induced aggressive behavior; test: Isolation-Induced Aggression in Mice; assay type: in vivo, mouse (male Balb/c); conditions: po
Description: Male Balb/c mice (Charles River) were used. […] Isolated mice failing to consistently attack an intruder were eliminated from the colony.
Drug testing was carried out by treating the isolated mice with test drugs or standards. Fifteen min after dosing with drugs by the oral route (po), one isolated mouse was removed from its home cage and placed in the home cage of another isolate. Scoring was a yes or no response for each pair. A maximum of 3 min was allowed for an attack and the pair was separated immediately upon an attack. Selection of home cage and intruder mice was randomized for each test. Mice were treated and tested twice a week with at least a 2 day washout period between treatments.

[2] = tested on: (+)-N-allylnormetazocine-induced turning; test: (+)-N-Allylnormetazocine-Induced Turning Behavior in Rats; assay type: in vivo, rat (male Sprague-Dawley); conditions: p.o.
Rhizoctonia solani = test: Test I: rice sheath blight disease control (rice seedlings); assay type: in vivo; conditions: sprayed at 1000 to 2 ppm (rate not given per compound)
Description: The test compounds were dissolved in acetone in an amount equal to 6% of the final volume and then suspended at a concentration of from 1000 to 2 ppm in purified water containing 250 ppm of the surfactant TREM 014 (polyhydric alcohol esters). This suspension was sprayed to the point of run-off on rice seedlings. The following day plants were inoculated with a mycelial suspension of Rhizoctonia solani, the causal agent of rice sheath blight, and incubated in a saturated humidity chamber at 27° C. for 48 hours and then in a growth chamber at 29° C. for 4 days, when disease ratings were made.

Pyricularia oryzae = assay type: in vivo; conditions: rice blast; sprayed at 1000 to 2 ppm (rate not given per compound)
Plasmopara viticola = test: Test G: grape downy mildew disease control (grape seedlings); assay type: in vivo; conditions: sprayed at 1000 to 2 ppm (rate not given per compound)
Description: The test compounds were dissolved in acetone in an amount equal to 6% of the final volume and then suspended at a concentration of from 1000 to 2 ppm in purified water containing 250 ppm of the surfactant TREM 014 (polyhydric alcohol esters). This suspension was sprayed to the point of run-off on grape seedlings. The following day plants were inoculated with a spore suspension of Plasmopara viticola, the causal agent of grape downy mildew, and incubated in a dew chamber at 20° C. for 24 hours and then in a growth chamber a 20° C. for 7 days, when disease ratings were made.

Puccinia recondita = test: Test B: wheat leaf rust disease control (wheat seedlings); assay type: in vivo; conditions: sprayed at 1000 to 2 ppm (rate not given per compound)
Description: The test compounds were dissolved in acetone in an amount equal to 6% of the final volume and then suspended at a concentration of from 1000 to 2 ppm in purified water containing 250 ppm of the surfactant TREM 014 (polyhydric alcohol esters). This suspension was sprayed to the point of run-off on wheat seedlings.

Phytophthora infestans = assay type: in vivo; conditions: tomato late blight; sprayed at 1000 to 2 ppm (rate not given per compound)
Venturia inaequalis = test: Test C: apple scab disease control (apple seedlings); assay type: in vivo; conditions: sprayed at 1000 to 2 ppm (rate not given per compound)
Description: The test compounds were dissolved in acetone in an amount equal to 6% of the final volume and then suspended at a concentration of from 1000 to 2 ppm in purified water containing 250 ppm of the surfactant TREM 014 (polyhydric alcohol esters). This suspension was sprayed to the point of run-off on apple seedlings. The following day plants were inoculated with a spore suspension of Venturia inaequalis, the causal agent of apple scab, and incubated in a saturated humidity chamber at 20° C. for 24 hours and then in a growth chamber at 22° C. for 11 days, when disease ratings were made.

[3] = tested on: Erysiphe graminis f. sp. tritici; test: Test A: wheat powdery mildew disease control (wheat seedlings); assay type: in vivo; conditions: sprayed at 1000 to 2 ppm (rate not given per compound)
Description: The test compounds were dissolved in acetone in an amount equal to 6% of the final volume and then suspended at a concentration of from 1000 to 2 ppm in purified water containing 250 ppm of the surfactant TREM 014 (polyhydric alcohol esters). This suspension was sprayed to the point of run-off on wheat seedlings. The following day plants were inoculated with a spore dust of Erysiphe graminis f. sp. tritici, the causal agent of wheat powdery mildew, and incubated in a growth chamber at 20° C. for 7 days, when disease ratings were made.

Cercosporidum personatum = test: Test D: peanut late leaf spot disease control (peanut seedlings); assay type: in vivo; conditions: sprayed at 1000 to 2 ppm (rate not given per compound)
Description: The test compounds were dissolved in acetone in an amount equal to 6% of the final volume and then suspended at a concentration of from 1000 to 2 ppm in purified water containing 250 ppm of the surfactant TREM 014 (polyhydric alcohol esters). This suspension was sprayed to the point of run-off on peanut seedlings. The following day plants were inoculated with a spore suspension of Cercosporidum personatum, the causal agent of peanut late leaf spot, and incubated in a saturated humidity chamber at 22° C. for 24 hours and then in a high humidity chamber at 27° C. for 7 days, and then in a growth chamber at 29° C. for 7 days, when disease ratings were made.

Botrytis cinerea = test: Test E: cucumber grey mold disease control (cucumber seedlings); assay type: in vivo; conditions: sprayed at 1000 to 2 ppm (rate not given per compound)
Description: The test compounds were dissolved in acetone in an amount equal to 6% of the final volume and then suspended at a concentration of from 1000 to 2 ppm in purified water containing 250 ppm of the surfactant TREM 014 (polyhydric alcohol esters). This suspension was sprayed to the point of run-off on cucumber seedlings. The following day plants were inoculated with a spore suspension of Botrytis cinerea, the causal agent of cucumber grey mold, and incubated in a saturated humidity chamber at 20° C. for 48 hours and then in a greenhouse for 5 days, when disease ratings were made.

sigma receptor = conditions: Tam, Eur. Pharmacol. 109: 33-41 (1985); cited from earlier work

Fc1ccc(OCC2CCN(Cc3ccccc3)CC2)cc1 [Example 68, 1-Benzyl-4-(4'-Fluorophenoxymethyl)piperidine]
inhibiting the isolation-induced aggressive behavior (in words) [1]: potent activities | antagonism of N-allylnormetazocine-induced rotation (in words) [2]: potently antagonized

Fc1ccc(COCC2CCN(Cc3ccc(Cl)cc3)CC2)cc1 [Example 188]
disease control rating, Test I (Rhizoctonia solani): 0% | disease control rating, Test H (Pyricularia oryzae): 0% | disease control rating, Test G (Plasmopara viticola): 89% | disease control rating, Test B (Puccinia recondita): 72% | disease control rating, Test F (Phytophthora infestans): 8% | disease control rating, Test C (Venturia inaequalis): 93% | disease control rating, Test A [3]: 100% | disease control rating, Test D (Cercosporidum personatum): 82% | disease control rating, Test E (Botrytis cinerea): 18%

O=C(CCCN1CCC(O)(c2ccc(Cl)cc2)CC1)c1ccc(F)cc1 [Haloperidol, reference compound]
inhibiting the isolation-induced aggressive behavior (in words) [1]: potent activities | antagonism of N-allylnormetazocine-induced rotation (in words) [2]: potently antagonized

c1ccc(C2(N3CCCCC3)CCCCC2)cc1 [PCP]
affinity for the sigma receptor (in words) (sigma receptor): significant affinity
